Where two headings read alike, the source gives them in different places.
Experiments:
SETD2(1434-1711) = molecular target: T1, SETD2(1434-1711) (Homo sapiens, UniProt Q9BYW2); test: SETD2 (1434-1711) assay; format: biochemical; details: read-out: SETD2 (1434-1711)
T1 construct: SETD2 (1434-1711) Assay; catalogue N/A
T1 sequence (Q9BYW2 1434-1711): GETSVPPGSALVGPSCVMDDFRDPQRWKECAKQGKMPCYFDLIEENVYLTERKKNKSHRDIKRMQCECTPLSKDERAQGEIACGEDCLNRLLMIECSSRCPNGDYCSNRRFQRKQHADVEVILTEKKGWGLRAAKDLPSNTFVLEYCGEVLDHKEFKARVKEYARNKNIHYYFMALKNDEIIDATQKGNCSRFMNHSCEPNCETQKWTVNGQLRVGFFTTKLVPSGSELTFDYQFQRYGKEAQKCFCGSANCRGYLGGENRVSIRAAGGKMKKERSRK

H3K36me3 in A549 cells = test: In-Cell Western (ICW) assay of SETD2 inhibitors (A549 assay); format: cell-based, human; details: A549 cells, read-out: SETD2 A549
Method in brief: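 H3K36me3 In-Cell Western: cells exposed to compound for 3 days at 4,000 cells/well, 37° C. DRAQ5 (1:1000) marked cell number, with 700/800-channel Licor read-out.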

SMILES | IC50 (SETD2(1434-1711)) | IC50 (H3K36me3 in A549 cells; Homo sapiens) | IC50 (H3K36me3 in A549 cells)
Cc1ccc(F)c2cc(C(=O)Nc3nnc(C4CCN(C)CC4)o3)[nH]c12 [compound 557] | > 10 µM | > 25 µM | 
Cc1ccc(F)c2cc(C(=O)Nc3cc(C4CCN(C)CC4)n[nH]3)[nH]c12 [compound 558] | > 10 µM |  | > 25 µM
Cc1ccc(F)c2cc(C(=O)Nc3nnc(C4CCN(C)CC4)[nH]3)[nH]c12 [compound 559] | > 10 µM | > 25 µM | 
Cc1ccc(F)c2cc(C(=O)NC(C(=O)N3CCOCC3)c3ccccn3)[nH]c12 (centres unmarked) [compound 560] | > 10 µM | > 25 µM | 
Cc1ccc(F)c2cc(C(=O)Nc3cn(C4CCN(C)CC4)cn3)[nH]c12 [compound 561] | > 10 µM | > 25 µM | 
Cc1ccc(F)c2cc(C(=O)Nc3cnc(C4CCN(C)CC4)[nH]3)[nH]c12 [compound 562] | > 10 µM | > 25 µM | 
Cc1cccnc1C(NC(=O)c1cc2cccc(C)c2[nH]1)C1CCCC1 (centres unmarked) [compound 563] | 10.1 µM | > 25 µM | 
Cc1cccc2cc(C(=O)NC(c3cccc4c3NC(=O)C4)C3CC3)[nH]c12 (centres unmarked) [compound 564] | 10.9 µM | > 25 µM | 
Cc1ccc(F)c2cc(C(=O)Nc3cnn(C4CCC(N(C)C)CC4)c3)[nH]c12 (centres unmarked) [compound 565] | 11.6 µM | > 25 µM | 
Cc1cccc2cc(C(=O)NCCc3ccccc3N3CCOC(CN(C)C)C3)[nH]c12 (centres unmarked) [compound 566] | 12.9 µM | > 25 µM | 
Cc1cccnc1C(CCCN1CCNCC1)NC(=O)c1cc2cccc(C)c2[nH]1 (centres unmarked) [compound 567] | 13.6 µM | > 25 µM | 
Cc1cccnc1C(NC(=O)c1cc2cccc(C)c2[nH]1)C(C)(C)C (centres unmarked) [compound 568] | 13.9 µM | > 25 µM | 
Cc1ccc(F)c2cc(C(=O)Nc3cnn(C4CCN(C)CC4)c3)[nH]c12 [compound 569] | 14 µM | > 25 µM | 
Cc1cccc2cc(C(=O)NCc3cccc4ccnn34)[nH]c12 [compound 570] | 15 µM | > 25 µM | 
Cc1cccnc1C(CCC(=O)NC1CCOC1)NC(=O)c1cc2cccc(C)c2[nH]1 (centres unmarked) [compound 571] | 15.9 µM |  | > 25 µM
Cc1cccnc1C(CCC(=O)N1CCNCC1)NC(=O)c1cc2cccc(C)c2[nH]1 (centres unmarked) [compound 572] | 16.6 µM | > 25 µM | 
Cc1cc(C(=O)N[C@H]2CC[C@@H]2N)cnc1C(NC(=O)c1cc2cccc(C)c2[nH]1)C1CC1 (some centres unmarked) [compound 573] | 16.9 µM | > 25 µM | 
Cc1cccnc1C(NC(=O)c1cc2cccc(CO)c2[nH]1)C1CC1 (centres unmarked) [compound 574] | 17.3 µM | > 25 µM | 
Cc1cccc2cc(C(=O)NCc3ccccc3N3CCOCC3)[nH]c12 [compound 575] | > 18 µM | > 25 µM | 
Cc1ccc[n+]([O-])c1C(NC(=O)c1cc2cccc(C)c2[nH]1)C1CC1 (centres unmarked) [compound 576] | 18.6 µM | > 25 µM | 
Cc1cc(C(=O)N2CCNCC2)ccc1C(NC(=O)c1cc2cccc(C)c2[nH]1)C1CC1 (centres unmarked) [compound 577] | 21.8 µM | > 25 µM | 
Cc1cccc2cc(C(=O)Nc3ccn4ccnc4c3)[nH]c12 [compound 578] | 22.5 µM |  | > 25 µM
Cc1cccnc1C(CCC(=O)NC1CCC(N)CC1)NC(=O)c1cc2cccc(C)c2[nH]1 (centres unmarked) [compound 579] | 23 µM |  | > 25 µM
Cc1cccc2cc(C(=O)NCCc3ccccc3-n3ccnc3)[nH]c12 [compound 580] | 24.5 µM | > 25 µM | 
Cc1cccc2cc(C(=O)NC3CCC(NS(=O)(=O)CCCN)CC3)[nH]c12 (centres unmarked) [compound 581] | 28.2 µM |  | > 25 µM

From US12116358B2, “Substituted indoles and methods of use thereof” (EPIZYME, INC., priority 2018, dated 2024)
